biological target: T1, human KCNK13 (Homo sapiens, UniProt Q9HB14); experiment: KCNK13 antagonist activity, thallium flux FLIPR assay in HEK 293 cells stably expressing human KCNK13; assay type: cell-based; details: HEK 293 cells stably expressing human KCNK13, Tl+ sensitive dye, compound 15 min before thallium sulfate, ten point curves; read-out: hKCNK13 IC50
T1 construct: expressed in transfected cells
T1 sequence (Q9HB14 1-408): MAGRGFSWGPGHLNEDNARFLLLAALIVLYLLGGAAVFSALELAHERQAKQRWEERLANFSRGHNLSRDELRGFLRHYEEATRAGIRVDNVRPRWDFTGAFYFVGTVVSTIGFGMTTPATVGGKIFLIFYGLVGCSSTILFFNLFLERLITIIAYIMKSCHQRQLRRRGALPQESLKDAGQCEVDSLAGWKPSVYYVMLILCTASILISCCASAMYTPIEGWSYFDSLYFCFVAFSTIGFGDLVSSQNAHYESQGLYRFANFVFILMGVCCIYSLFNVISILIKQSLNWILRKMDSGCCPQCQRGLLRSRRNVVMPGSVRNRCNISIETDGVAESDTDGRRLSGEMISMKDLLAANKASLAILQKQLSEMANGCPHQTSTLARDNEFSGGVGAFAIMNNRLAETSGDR
Description: 4. Biological Efficacy of Compounds of the Invention
KCNK13 antagonist activity was determined by measuring changes in intracellular Thallium (Tl^+) concentrations using a Tl^+ sensitive fluorescent dye. The changes in fluorescent signal were monitored by Fluorescent Imaging Plate Reader (FLIPR™) technology available from Molecular Devices, LLC, US. KCNK13 mediated increases in intracellular Tl^+ concentration were readily detected by addition of a thallium sulfate Stimulus. 24 hours prior to the assay, human embryonic kidney 293 cells (HEK 293 cells) stably expressing human KCNK13 were seeded in cell culture medium in PDL coated black, clear-bottom 384-well plates (commercially available from Corning Inc., 356663) and grown overnight at 37° C., […]. On the day of the assay, cell culture media was removed and cells were loaded with potassium dye (commercially sold by Molecular Devices, LLC, US, R8222) for 1 hour at room temperature in the dark. Test compounds (at 10 point half log concentration response curves from 100 µM) were added to cells for 15 minutes prior to the addition of thallium sulfate to all wells. The IC50 values were determined from ten point concentration response curves. Curves were generated using the average of two wells for each data point.

IC50 [nM] | Compound
≤ 200 | CN(Cc1cc(F)cc(Cl)c1)C(=O)c1cc(Cl)cnc1OC(F)F [Example 79, 5-chloro-N-(3-chloro-5-fluorobenzyl)-2-(difluoromethoxy)-N-methylnicotinamide]
≤ 200 | COc1ncc(Cl)cc1C(=O)N(C)Cc1c(Cl)cccc1Cl [Example 118, 5-chloro-N-(2,6-dichlorobenzyl)-2-methoxy-N-methylnicotinamide]
≤ 200 | COc1ncc(F)cc1C(=O)N(C)C(C)c1cccc(F)c1 (single isomer, unassigned) [Example 7, 5-fluoro-N-(1-(3-fluorophenyl)ethyl)-2-methoxy-N-methylnicotinamide]
≤ 500 | COc1ncc(Cl)cc1C(=O)N(C)C1COc2ccccc21 (single isomer, unassigned) [Example 26, 5-chloro-N-(2,3-dihydrobenzofuran-3-yl)-2-methoxy-N-methylnicotinamide]
≤ 500 | COc1ncc(Cl)cc1C(=O)N(C)C1CCOc2ccccc21 (single isomer, unassigned) [Example 18, 5-chloro-N-(chroman-4-yl)-2-methoxy-N-methylnicotinamide]
≤ 1000 | COc1ncc(F)cc1C(=O)N1CCCCC1c1cccc(F)c1 (stereo not drawn) [Example 4, (5-fluoro-2-methoxypyridin-3-yl)(2-(3-fluorophenyl)piperidin-1-yl)methanone]
≤ 200 | COc1ncc(Cl)cc1C(=O)N(C)Cc1ccc(F)cc1C#N [Example 58, 5-chloro-N-(2-cyano-4-fluorobenzyl)-2-methoxy-N-methylnicotinamide]
≤ 500 | O=S(=O)(c1cc(Cl)cnc1OC(F)F)N1CCOc2ccc(F)cc2C1 [Example 115, 4-((5-chloro-2-(difluoromethoxy)pyridin-3-yl)sulfonyl)-7-fluoro-2,3,4,5-tetrahydrobenzo[f][1,4]oxazepine]
≤ 500 | COc1ncc(F)cc1C(=O)N(C)C1CCc2ccccc21 (single isomer, unassigned) [Example 17, N-(2,3-dihydro-1H-inden-1-yl)-5-fluoro-2-methoxy-N-methylnicotinamide]
≤ 500 | COc1ncc(Cl)cc1C(=O)N(C)C(C)c1cc(F)ccc1C#N (single isomer, unassigned) [Example 59, 5-chloro-N-(1-(2-cyano-5-fluorophenyl)ethyl)-2-methoxy-N-methylnicotinamide]
≤ 1000 | COc1ncc(F)cc1C(=O)N(C)C1CCc2ccc(F)cc21 (single isomer, unassigned) [Example 9, 5-fluoro-N-(6-fluoro-2,3-dihydro-1H-inden-1-yl)-2-methoxy-N-methylnicotinamide]
≤ 200 | CN(Cc1cccc(OC(F)F)c1)C(=O)c1cc(Cl)cnc1OC(F)F [Example 98, 5-chloro-2-(difluoromethoxy)-N-(3-(difluoromethoxy)benzyl)-N-methylnicotinamide]
≤ 1000 | COc1ncc(F)cc1C(=O)N(C)C(C)c1cc(F)ccc1C#N (single isomer, unassigned) [Example 63, N-(1-(2-cyano-5-fluorophenyl)ethyl)-5-fluoro-2-methoxy-N-methylnicotinamide]
≤ 100 | CN(Cc1cccc(F)c1)C(=O)c1cc(Cl)cnc1OC(F)F [Example 101, 5-chloro-2-(difluoromethoxy)-N-(3-fluorobenzyl)-N-methylnicotinamide]
≤ 1000 | COc1nc(C)ccc1C(=O)N(C)Cc1ccc(F)cc1F [Example 11, N-(2,4-difluorobenzyl)-2-methoxy-N,6-dimethylnicotinamide]
≤ 50 | CN(Cc1cc(F)cc(F)c1)C(=O)c1cc(Cl)cnc1OC(F)F [Example 78, 5-chloro-N-(3,5-difluorobenzyl)-2-(difluoromethoxy)-N-methylnicotinamide]
≤ 200 | COc1ncc(Cl)cc1C(=O)N(C)Cc1cccc(F)c1F [Example 40, 5-chloro-N-(2,3-difluorobenzyl)-2-methoxy-N-methylnicotinamide]
≤ 200 | COc1ncc(Cl)cc1C(=O)N(C)Cc1cc(F)cc(Cl)c1 [Example 44, 5-chloro-N-(3-chloro-5-fluorobenzyl)-2-methoxy-N-methylnicotinamide]
≤ 1000 | CCN(Cc1cccc(F)c1)C(=O)c1cc(Cl)cnc1OC [Example 49, 5-chloro-N-ethyl-N-(3-fluorobenzyl)-2-methoxynicotinamide]
≤ 200 | COc1ncc(F)cc1C(=O)N(C)C(C)c1ccc(F)cc1F (single isomer, unassigned) [Example 69, N-(1-(2,4-difluorophenyl)ethyl)-5-fluoro-2-methoxy-N-methylnicotinamide]

IC50 [nM] | Compound
≤ 1000 | COc1ncccc1C(=O)N(C)Cc1cccc(F)c1 [Example 32, N-(3-fluorobenzyl)-2-methoxy-N-methylnicotinamide]
≤ 100 | CC(c1cccc(F)c1)N(C)C(=O)c1cc(F)cnc1OC(F)F (stereo not drawn) [Example 83, 2-(difluoromethoxy)-5-fluoro-N-(1-(3-fluorophenyl)ethyl)-N-methylnicotinamide]
≤ 500 | COc1ncc(F)cc1C(=O)N(C)C(C)c1ccccc1F (single isomer, unassigned) [Example 6, 5-fluoro-N-(1-(2-fluorophenyl)ethyl)-2-methoxy-N-methylnicotinamide]
≤ 500 | COc1ncc(Cl)cc1C(=O)N(C)C1CCc2ccccc21 (single isomer, unassigned) [Example 23, 5-chloro-N-(2,3-dihydro-1H-inden-1-yl)-2-methoxy-N-methylnicotinamide]
≤ 100 | COc1ncc(Cl)cc1C(=O)N(C)Cc1ccccc1 [Example 1, N-benzyl-5-chloro-2-methoxy-N-methylnicotinamide]
≤ 100 | CN(Cc1ccc(F)cc1F)C(=O)c1cc(Cl)cnc1OC(F)F [Example 100, 5-chloro-N-(2,4-difluorobenzyl)-2-(difluoromethoxy)-N-methylnicotinamide]
≤ 500 | COc1ncc(F)cc1C(=O)N(C)C1COc2ccc(F)cc21 (stereo not drawn) [Example 35, 5-fluoro-N-(5-fluoro-2,3-dihydrobenzofuran-3-yl)-2-methoxy-N-methylnicotinamide]
≤ 100 | CN(Cc1cccc(Cl)c1)C(=O)c1cc(Cl)cnc1OC(F)F [Example 84, 5-chloro-N-(3-chlorobenzyl)-2-(difluoromethoxy)-N-methylnicotinamide]
≤ 500 | COc1ncccc1C(=O)N(C)Cc1ccccc1F [Example 33, N-(2-fluorobenzyl)-2-methoxy-N-methylnicotinamide]
≤ 200 | CC(c1cccc(F)c1)N(C)C(=O)c1cc(Cl)cnc1OC(F)F (single isomer, unassigned) [Example 87, 5-chloro-2-(difluoromethoxy)-N-(1-(3-fluorophenyl)ethyl)-N-methylnicotinamide]
≤ 1000 | CN(Cc1cccc(OC(F)(F)F)c1)C(=O)c1cc(Cl)cnc1OC(F)F [Example 99, 5-chloro-2-(difluoromethoxy)-N-methyl-N-(3-(trifluoromethoxy)benzyl)nicotinamide]
≤ 200 | O=S(=O)(c1cc(F)cnc1OC(F)F)N1CCOc2ccc(F)cc2C1 [Example 114, 4-((2-(difluoromethoxy)-5-fluoropyridin-3-yl)sulfonyl)-7-fluoro-2,3,4,5-tetrahydrobenzo[f][1,4]oxazepine]
≤ 100 | CN(Cc1cccc(F)c1)C(=O)c1cc(F)cnc1OC(F)F [Example 95, 2-(difluoromethoxy)-5-fluoro-N-(3-fluorobenzyl)-N-methylnicotinamide]
≤ 500 | COc1ncc(F)cc1C(=O)N(C)C(C)c1ccccc1F (single isomer, unassigned) [Example 5, 5-fluoro-N-(1-(2-fluorophenyl)ethyl)-2-methoxy-N-methylnicotinamide]
≤ 200 | CN(C(=O)c1cc(F)cnc1OC(F)F)C1COc2ccccc21 (stereo not drawn) [Example 85, 2-(difluoromethoxy)-N-(2,3-dihydrobenzofuran-3-yl)-5-fluoro-N-methylnicotinamide]
≤ 200 | COc1ncc(F)cc1C(=O)N(C)Cc1cccc(F)c1 [Example 50, 5-fluoro-N-(3-fluorobenzyl)-2-methoxy-N-methylnicotinamide]
≤ 500 | COc1ncc(Cl)cc1C(=O)N(C)C1CCOc2ccccc21 (single isomer, unassigned) [Example 19, 5-chloro-N-(chroman-4-yl)-2-methoxy-N-methylnicotinamide]
≤ 500 | COc1ncc(Cl)cc1C(=O)N(C)C(C)c1ccc(F)cc1C#N (single isomer, unassigned) [Example 67, 5-chloro-N-(1-(2-cyano-4-fluorophenyl)ethyl)-2-methoxy-N-methylnicotinamide]
≤ 100 | CN(Cc1cccc(F)c1F)S(=O)(=O)c1cc(F)cnc1OC(F)F [Example 107, N-(2,3-difluorobenzyl)-2-(difluoromethoxy)-5-fluoro-N-methylpyridine-3-sulfonamide]

— US20260167632A1, “NICOTINAMIDE DERIVATIVES FOR USE IN TREATING DISORDERS ASSOCIATED WITH KCNK13 ACTIVITY” (Cerevance, Inc., priority 2022, published 2026)
